Experimental data published in article PMC10892288, “Early Stage Preclinical Formulation Strategies to Alter the Pharmacokinetic Profile of Two Small Molecule Therapeutics” (Pharmaceuticals, 2024).

Legend:
[1] = Water solubility (physiochemical properties); type: physicochemical
[2] = Log P (physiochemical properties); type: physicochemical
[3] = pKa (physiochemical properties); type: physicochemical
Text: Table 1 Physiochemical properties of […] and […]. | column: […]; […]

[4] = Permeability (physiochemical properties); type: in vitro ADME
HPK1 = HPK1 (Homo sapiens, UniProt Q92918); experiment: Potency (IC50) of HPK1 inhibitor
HPK1, sequence (Q92918 whole entry, species assumed): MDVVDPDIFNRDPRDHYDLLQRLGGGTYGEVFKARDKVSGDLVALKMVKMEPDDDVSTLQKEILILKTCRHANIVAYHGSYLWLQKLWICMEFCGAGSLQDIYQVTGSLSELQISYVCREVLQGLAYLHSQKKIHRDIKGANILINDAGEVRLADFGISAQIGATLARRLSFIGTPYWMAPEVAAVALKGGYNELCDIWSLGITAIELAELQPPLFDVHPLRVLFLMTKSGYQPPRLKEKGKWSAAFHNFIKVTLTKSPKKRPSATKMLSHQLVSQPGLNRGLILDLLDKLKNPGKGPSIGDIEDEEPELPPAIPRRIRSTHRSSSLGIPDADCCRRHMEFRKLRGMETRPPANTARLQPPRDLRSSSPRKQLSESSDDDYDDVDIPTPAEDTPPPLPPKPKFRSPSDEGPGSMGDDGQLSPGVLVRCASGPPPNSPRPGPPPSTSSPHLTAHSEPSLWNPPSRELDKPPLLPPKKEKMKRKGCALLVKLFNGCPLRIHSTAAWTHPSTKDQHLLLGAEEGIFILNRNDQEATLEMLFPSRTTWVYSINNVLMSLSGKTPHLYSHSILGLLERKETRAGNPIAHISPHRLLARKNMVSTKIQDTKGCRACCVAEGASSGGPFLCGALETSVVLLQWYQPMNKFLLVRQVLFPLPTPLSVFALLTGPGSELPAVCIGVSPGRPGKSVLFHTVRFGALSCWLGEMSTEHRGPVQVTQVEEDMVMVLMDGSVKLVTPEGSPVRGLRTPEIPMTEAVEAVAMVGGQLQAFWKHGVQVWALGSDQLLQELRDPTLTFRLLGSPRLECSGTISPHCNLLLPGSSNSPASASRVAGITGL

[5] = Mouse PK of G6893, PO in MCT vehicle; type: in vivo, female C57BL-6 mice; details: female, C57BL-6, plasma, 30 mg/kg, PO 30 mpk, MCT vehicle pH 2.5, mouse
Procedure: A total of 0.6% w/v Methylcellulose, 0.2% w/v Tween 80 in water (MCT) was prepared by slowly adding Methylcellulose (Methylocel A15 LV; CAS 9004-67-5, Part ID: 64605-500G-F 27.5-31.5% Methoxyl basis, Sigma-Aldrich, St. Louis, MO, USA) in small portions to prevent clumping while stirring into water at 70–80 °C. Once a homogeneous suspension formed, Tween 80 (Polysorbate 80; CAS#9005-65-6 (Polyoxyethylene (20) Sorbitan Monooleate; Tween 80) Part ID: PO138, Spectrum Chemical, New Brunswick, NJ, USA) was added and stirred until fully dissolved. Vehicle was filtered through 0.22 µm PES (Corning REF no. 431098) prior to adding to the compound for dosing. Respective compound was added based on the target concentration to the MCT vehicle and stirred at 35 °C until the power was well-dispersed. Formulations were homogenized through a polytron homogenizer and then sonicated in a water bath sonicator until a homogeneous suspension was achieved.
The pharmacokinetics of G7883 were determined in female CD-1 mice obtained from Charles River Laboratories (Hollister, CA, USA) with a body weight ranging from 20 to 25 g. The pharmacokinetics of G6893 were determined in female C57BL-6 mice (Lingchang/Vital River Laboratory Animal Co., Ltd., Shanghai/Beijing, China) with a body weight ranging from 20 to 35 g. Three mice were given an oral dose of G7883 formulated in 0.6% Methylcellulose, 0.2% Tween80 in water (MCT) at 25 mg/kg and 250 mg/kg with a dosing volume of 10 mL/kg. Food and water were available ad libitum to the animals. Three mice were given an oral dose of G6893 formulated in 0.6% methylcellulose; 0.2% Tween80 in water with pH adjusted to 2.5 at 30 mg/kg and a dose volume of 5 mL/kg. For both compounds, G7883 and G6893, 15 µL of blood was collected serially at 0. 25, 0.5, 1, 2, 4, 6, 8, and 24 h post-dose and diluted in 60 µL of 1.7 mg/mL potassium K2EDTA water. The frozen blood samples were stored at −70 °C or lower until analysis.
All plasma and cell media concentrations of G7883 and G6893 were determined using liquid chromatography–tandem mass spectrometry after protein precipitation with acetonitrile and injection of the supernatant onto the column (Waters ACQUITY UPLC BEH C18 1.7 μm, 2.1 × 50 mm for G7883 and G6893). The aqueous mobile phase was 0.1% formic acid, 2 mM ammonium formate in water/acetonitrile (v:v, 95:5), and the organic mobile phase was 0.1% formic acid, 2 mM ammonium formate in acetonitrile/water (v:v, 95:5). An AB Sciex API 4000 Triple Quad instrument was used for detecting G7883 and G6893 (Figure S2). The electrospray ionization source in both columns was operated in the positive ion and multiple reaction monitoring (MRM) detection modes. The MRM transitions for G7883 and G6893 were m/z 462.2 (Q1) and 253.10 (Q3) and m/z 454.2 (Q1) and 325.9 (Q3), respectively. The dynamic range of both assays was 0.50–50.0 ng/mL, and the total run time was 1.6 min. The lower limit of quantitation of the assay was […], and the dilution quality control concentration was set at 10 ng/mL with acceptance criteria for accuracy and precision of 25%.

[6] = Mouse IV infusion of G6893 by iPRECIO pump; type: in vivo, female C57BL-6 mice; details: 0.5 mg/kg/h, 2.5 mg/mL in 100% PEG400, over 96 h
Text: This is often a concern for molecules in early drug discovery stages. Various formulation and delivery strategies have been devised to modify the systemic PK profiles of drug molecules, encompassing nanoparticles, microparticles, lipid and polymer conjugation, implanted infusion pump device technologies, and subcutaneous depots. Here, we examined two strategies aimed at maintaining the drug concentration at a designed target concentration for the maximum duration potentially needed for proof of concept studies. The initial approach involved using an implantable device, the iPRECIO pump that allows for a controlled and sustained infusion, as opposed to a typical bolus IV injection. The infusion pump strategies can be a promising tool to achieve the desired delivery profile of a compound, given the solubility requirements based on the intended target release and PK profile. […]
All plasma and cell media concentrations of G7883 and G6893 were determined using liquid chromatography–tandem mass spectrometry after protein precipitation with acetonitrile and injection of the supernatant onto the column (Waters ACQUITY UPLC BEH C18 1.7 μm, 2.1 × 50 mm for G7883 and G6893). […] The lower limit of quantitation of the assay was 5.1 ng/mL, and the dilution quality control concentration was set at 10 ng/mL with acceptance criteria for accuracy and precision of 25%.

[7] = Vehicle screening for solution or suspension formulations; type: physicochemical; details: 100% PEG400
Procedure: Based on the target concentration, G7883 was screened at 3.3 mg/mL in three different vehicles of 100%PEG400, 10%DMSO in 90%PEG400, and 20%DMSO in 80%PEG400 to generate a stable solution. […] A total of 50% DMSO is the maximum amount compatible with the iPRECIO pump system. Based on the target concentration, G6893 was screened at 5 mg/mL in four different vehicles as follows: 100% PEG400, 20% DMSO in 80% PEG400, 20% DMA and 40% PG in 40% PEG400, and 10% EtOH and 20% HPbCD in 70% water at pH 4.5. G6893 achieved a solution at the target concentration of 5 mg/mL in 100% PEG400 and maintained a solution without precipitation after dilution in PBS buffer.
G7883 was screened in different oil vehicles including corn, coconut, paraffin, soybean, and sunflower oil.

- solubility (in words) [1]: low solubility
- solubility ([1]; water): < 1 µg/mL
- logP [2]: 2.69
- pKa [3]: 2.53
- permeability (in words) [4]: high permeability
- Papp ([4]; not told): 150 nm/s
- IC50 (HPK1): 0.56 µM
- Cmax ([5]; mean ± SD): 3.8 ± 1.68 µM
- Tmax ([5]; mean ± SD): 0.667 ± 0.289 h
- bioavailability ([5]; mean ± SD): 45.5 ± 14%
- half-life ([5]; mean ± SD): 3.07 ± 1.92 h
- AUC(0-t) ([5]; read-out: AUC0 to 8): 19.5 µM·h
- concentration at which a solution was achieved [7]: ≥ 5000 µg/mL
SMILES: Cc1c(-c2cc3cc(NC(=O)O[C@H]4COC[C@@H]4C)ncc3c(N)c2F)cnc2c1NCCO2 (racemic) [G6893, [rac-(3R,4S)-4-methyltetra hydrofuran-3-yl]N-[8-amino-7-fluoro-6-(8-methyl-2,3-dihydro-1H-pyrido[2,3-b][1,4]oxazin-7-yl)-3-isoquinolyl]carbamate]
- plasma concentration relative to target concentration (IC50) [6]: successfully maintained the target concentration profile
